Measurements from patent publication US5541182A, “Benzodiazepine aryl urea derivatives” (Yamanouchi Pharmaceutical Co., Ltd., priority 1990, dated 1996).

Tests used:
CCK-B receptor = biological target: T1, CCK-B receptor (Rattus norvegicus, UniProt P30553); experiment: Binding action upon CCK-B receptor ([125I]BH.CCK-8, rat whole brain membrane); set-up: species or system SD rat; conditions: [125I]BH.CCK-8, 25° C., 120 min, pH 6.5
T1 construct: the whole brain was immediately excised from each of the cut heads and homogenized; from tissue; host or cells: SD rat whole brain, membrane preparation
Method: Measurement of the binding action upon CCK-B receptor:
About 100 heads of SD rats were decapitated without anesthesia, the whole brain was immediately excised from each of the cut heads and homogenized in 10-fold volume of 0.32M aqueous solution of sucrose by the use of a Teflon-coated homogenizer, the homogenate thus obtained was centrifuged for ten minutes at 900 g by the use of a cooled centrifuge, and the supernatant was further centrifuged for 15 minutes at 11500 g. The precipitate thus obtained was dispersed in 50 mM Tris-HCl buffer (pH 7.4) containing 0.08% Triton X-100, this suspension was allowed to stand for 30 minutes and again centrifuged for 15 minutes at 11500 g, the precipitate thus obtained was washed twice with 5 mM Tris-HCl buffer and twice with 50 mM Tris-HCl buffer in that order through centrifugal separation, the washed precipitate was suspended in 50 mM Tris-HCl buffer, and the suspension thus obtained was freeze-stored at -80° C., thus giving membrane preparation.
The membrane preparation was molten at room temperature, diluted with 10 mM HEPES buffer (containing 130 mM NaCl, 5 mM MgCl2, 1 mM EGTA and 0.25 mg/ml bacitracin; pH 6.5) and incubated at 25° C. for 120 minutes in the presence of [^125 I]BH.cndot.CCK-8, and B/F separation was performed by suction filtration. Nonspecific binding was determined in the presence of 1 μM CCK-8. The amount of labelled ligand bound to the receptor was measured by the use of a […]; Ki (CCK-B) values were determined from the binding inhibition curve of the test sample, with the maximum amount of labelled ligand bound to the receptor being set as 100%.

[1] = system: gastric-acid secretion caused by the stimulus of pentagastrin; experiment: Depression of gastric-acid secretion caused by the stimulus of pentagastrin; assay type: in vivo; conditions: Rattus norvegicus, iv; SD rats, urethane anesthetized, i.v. test drug, pentagastrin 15 μg/kg/hr i.v.
Description: Measurement of the action of depressing the gastric-acid secretion caused by the stimulus of pentagastrin:
A cannula was inserted into the trachea of a rat anesthetized with urethane (intraperitoneally administered in an amount of 1.25 g/kg), its abdominal wall was incised to expose the gastric and duodenal portions, and a polyethylene cannula was set at the anterior stomach after ligation of the cardia. The duodenum was then subjected to slight section, a polyethylene cannula was inserted from the incised portion toward the stomach, and the pylorus was ligated to fix the cannula.
Physiological saline (with pH adjusted to 7.0) was flown from the anterior stomach toward the pylorus at a speed of 3 ml/min, and the gastric-acid secretion was measured by continuous titration of the flown saline by the use of a pH-stat (AUT-201; product of Toa Electronics, Ltd.). The continuous titration was carried out by using 25 mM caustic soda solution until the pH reached 7.0, and the result was expressed as the amount of gastric acid secreted for every ten minutes (μEq /10 min.). Pentagastrin was intravenously administered at a rate of 15 μg/kg/hr. The secretion of gastric acid increased upon administration of pentagastrin, reaching the maximum level after 60 minutes and stably maintaining this level after that. […]

[2] = system: CCK-A receptor vs CCK-B receptor; experiment: Selectivity for CCK-B receptor by comparison with binding to CCK-A receptor (rat pancreas membrane, [3H]L-364,718); set-up: species or system SD rat; conditions: rat pancreas (CCK-A) vs rat brain (CCK-B)
Method: Measurement of selectivity for CCK-B receptor by comparison with the binding to CCK-A receptor in rats:
The pancreas of an SD rat was homogenized in 20-fold volume of 50 mM Tris-HCl buffer (pH 7.7) by the use of a Polytrone-type homogenizer, the homogenate was twice centrifuged for 10 minutes at 50000 g by the use of an ultracentrifuge, the precipitate thus obtained was suspended in 40-fold volume of 50 mM Tris-HCl buffer (containing 0.2% BSA, 5 mM MgCl2, 0.1 mg/ml bacitracin and 5 mM DTT; pH 7.7), and the suspension was freeze-stored at -80° C., thus giving membrane preparation.
The membrane preparation was then molten at room temperature, diluted ten times with the buffer and incubated at 37° C. for 30 minutes in the presence of [^3 H]L-364, 718, and B/F separation was performed by suction filtration. Nonspecific binding was determined in the presence of 1 μM L-364, 718. The amount of labelled ligand bound to the receptor was measured by the use of a liquid scintillation counter; Ki (CCK-A) values were determined from the binding inhibition curve of the test sample, with the maximum amount of labelled ligand bound to the receptor being set as 100%.
The Ki (CCK-A)/Ki (CCK-B) value of the present compound can be calculated from the above test. The higher the value of Ki (CCK-A)/Ki (CCK-B), the higher will be the selectivity to the CCK-B receptor.

benzodiazepine receptor = experiment: Binding to the benzodiazepine receptor; conditions: even at 10 μM

T1 sequence (P30553 whole entry): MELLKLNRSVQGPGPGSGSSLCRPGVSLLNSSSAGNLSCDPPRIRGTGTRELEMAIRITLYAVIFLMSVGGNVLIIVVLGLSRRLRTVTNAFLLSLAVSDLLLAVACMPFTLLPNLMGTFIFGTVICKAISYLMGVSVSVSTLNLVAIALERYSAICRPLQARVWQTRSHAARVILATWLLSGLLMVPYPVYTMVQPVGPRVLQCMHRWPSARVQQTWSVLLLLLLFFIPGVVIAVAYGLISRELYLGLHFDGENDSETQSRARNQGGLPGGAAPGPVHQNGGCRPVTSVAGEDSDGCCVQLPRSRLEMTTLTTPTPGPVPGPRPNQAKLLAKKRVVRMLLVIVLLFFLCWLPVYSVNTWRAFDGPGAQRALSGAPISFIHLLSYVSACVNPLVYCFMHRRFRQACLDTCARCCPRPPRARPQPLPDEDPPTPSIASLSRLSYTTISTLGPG

| Compound | Ki (CCK-B receptor) | ED50 [1] | Ki (CCK-A)/Ki (CCK-B), selectivity for the CCK-B receptor [2] | binding action to the benzodiazepine receptor (in words) (benzodiazepine receptor) |
| --- | --- | --- | --- | --- |
| Cc1cccc(NC(=O)NC2N=C(c3ccccc3)c3ccccc3N(CC(=O)c3ccccc3C)C2=O)c1 (stereo not shown) [Example 2, 1-[2,3-dihydro-1-(2'-methylphenacyl)-2-oxo-5-phenyl-1H-1,4-benzodiazepin-3-yl]-3-(3-tolyl)urea] | 0.15 nM | 0.03 µmol/kg | 1733 fold |  |
| Cc1ccc(C(=O)CN2C(=O)C(NC(=O)Nc3cccc(C)c3)N=C(c3ccccc3)c3ccccc32)cc1 (stereo not shown) [Example 7, 1-[2,3-Dihydro-1-(4'-methylphenacyl)-2-oxo-5-phenyl-1H-1,4-benzodiazepin-3-yl]-3-(3-tolyl)urea] | 0.22 nM |  | 864 fold |  |
| Cc1cccc(NC(=O)NC2N=C(c3ccccc3)c3ccccc3N(CC(=O)c3sccc3C)C2=O)c1 (stereo not shown) [Example 13, 1-[2,3-Dihydro-1-(3-methyl-2-thenoyl)methyl-2-oxo-5-phenyl-1H-1,4-benzodiazepin-3-yl]-3-(3-tolyl)urea] | 0.16 nM |  |  |  |
| Cc1cccc(NC(=O)N[C@@H]2N=C(c3ccccc3)c3ccccc3N(CC(=O)c3ccccc3C)C2=O)c1 [Example 16, (R)-1-[2,3-dihydro-1-(2'-methylphenacyl)-2-oxo-5-phenyl-1H-1,4-benzodiazepin-3-yl]-3-(3-tolyl)urea] |  |  |  | no binding action at all |
